Test results: US20030050306A1, “Novel heteroaryl derivatives, their preparation and use” (H. Lundbeck A/S, priority 1999, published 2003)

How the values were obtained:
[1] = molecular target: T1, cloned human 5-HT1A receptors (Homo sapiens, UniProt P08908); test: Inhibition of 3H-5-CT binding to human 5-HT1A receptors; conditions: cloned human 5-HT1A receptors in HeLa cells (HA7)
T1 construct: expressed in transfected cells; host or cells: HeLa cells (HA7)
T1 sequence (P08908 1-422): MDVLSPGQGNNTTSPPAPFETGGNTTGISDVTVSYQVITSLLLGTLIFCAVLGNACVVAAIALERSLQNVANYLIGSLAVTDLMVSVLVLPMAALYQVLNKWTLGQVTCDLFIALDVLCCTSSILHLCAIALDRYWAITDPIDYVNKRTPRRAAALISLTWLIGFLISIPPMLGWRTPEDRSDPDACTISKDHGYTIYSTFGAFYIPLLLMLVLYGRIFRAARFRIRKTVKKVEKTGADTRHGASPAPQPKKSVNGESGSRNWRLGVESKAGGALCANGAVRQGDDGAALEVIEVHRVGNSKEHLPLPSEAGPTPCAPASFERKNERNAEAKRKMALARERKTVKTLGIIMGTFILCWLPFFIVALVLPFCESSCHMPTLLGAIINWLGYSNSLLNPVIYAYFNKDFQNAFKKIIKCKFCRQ
Procedure: The affinity of the compounds of the invention to 5-HT1A receptors was determined by measuring the inhibition of binding of a radioactive ligand at 5-HT1A receptors as described in the following test:
Inhibition of ^3H-5-CT Binding to Human 5-HT1A Receptors
By this method the inhibition by drugs of the binding of the 5-HT1A agonist ^3H-5-carboxamido tryptamine (3H-5-CT) to cloned human 5-HT1A receptors stably expressed in transfected HeLa cells (HA7) (Fargin, A. et al, J. Biol. Chem., 1989, 264, 14848) is determined in vitro. The assay was performed as a modification of the method described by Harrington, M. A. et at, J. Pharmacol. Exp. Ther., 1994, 268, 1098. Human 5-HT1A receptors (40 μg of cell homogenate) were incubated for 15 minutes at 37° C. in 50 mM Tris buffer at pH 7.7 in the presence of ^3H-5-CT. Non-specific binding was determined by including 10 μM of metergoline. The reaction was terminated by rapid filtration through Unifilter GF/B filters on a Tomtec Cell Harvester. Filters were counted in a Packard Top Counter.

[2] = molecular target: T2, human cloned dopamine D4.2 receptors (Homo sapiens, UniProt P21917, DEL265-296); test: Inhibition of the binding of 3H-YM-09151-2 to human dopamine D4 receptors; conditions: human cloned dopamine D4.2 receptors in CHO-cells
T2 construct: expressed in transfected cells; host or cells: CHO cells
T2 sequence (P21917 with tags, fused parts or gaps DEL265-296): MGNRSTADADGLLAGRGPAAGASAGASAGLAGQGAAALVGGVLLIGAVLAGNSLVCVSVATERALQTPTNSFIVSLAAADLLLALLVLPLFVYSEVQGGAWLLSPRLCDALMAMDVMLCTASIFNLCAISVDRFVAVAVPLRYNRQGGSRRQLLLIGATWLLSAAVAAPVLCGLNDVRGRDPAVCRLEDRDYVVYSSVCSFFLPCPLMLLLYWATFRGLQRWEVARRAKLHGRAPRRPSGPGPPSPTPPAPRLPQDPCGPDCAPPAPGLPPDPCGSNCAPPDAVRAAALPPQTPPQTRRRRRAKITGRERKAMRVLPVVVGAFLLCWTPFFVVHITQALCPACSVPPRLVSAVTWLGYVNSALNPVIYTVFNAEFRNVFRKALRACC
Procedure: The compounds of the invention have also been tested for their affinity to dopamine D4 receptors in the following test.
Inhibition of the Binding of ^3H-YM-09151-2 to Human Dopamine D4 Receptors
By this method the inhibition by drugs of the binding of [^3H]YM-09151-2 (0.06 nM) to membranes of human cloned dopamine D4.2 receptors expressed in CHO-cells is determined in vitro. Method modified from NEN Life Science Products, Inc., technical data certificate PC2533-10/96.

SMILES: CC1(C)Cc2cc(Cl)cc(N3CCN(CCCCOc4ccc(F)cc4Cl)CC3)c2O1 [Compound 5bd, 1-(5-Chloro-2,2-dimethyl-2,3-dihydro-benzofuran-7-yl)-4-[4-(2-chloro-4-fluoro-phenoxy)-butyl]-piperazine]
- IC50 [1]: 52 nM
- IC50 [2]: 6.5 nM

SMILES: Fc1cc(Cl)c(OCCCN2CCN(c3cccc4ccsc34)CC2)c(Cl)c1 [Compound 5au, 1-Benzo[b]thiophen-7-yl-4-[3-(2,6-dichloro-4-fluoro-phenoxy)-propyl]-piperazine]
- IC50 [1]: 6.4 nM
- IC50 [2]: 7.6 nM

SMILES: CC1(C)COc2c(N3CCN(CCCOc4c(Cl)cc(S(C)(=O)=O)cc4Cl)CC3)cc(Cl)cc21 [Compound 5bi, 1-(5-Chloro-3,3-dimethyl-2,3-dihydro-benzofuran-7-yl)-4-[3-(2,6-dichloro-4-methanesulfonyl-phenoxy)-propyl]-piperazine]
- IC50 [1]: 3.5 nM
- IC50 [2]: 87 nM

SMILES: Clc1ccc(SCCCCN2CCN(c3cccc4c3OCCO4)CC2)cc1Cl [Compound 7an, 1-[4-(3,4-Dichloro-phenylsulfanyl)-butyl]-4-(2,3-dihydro-henzo[1,4]dioxin-5-yl)-piperazine]
- Inhibition of 3H-5-CT Binding % inhibition at 100 nM ([1]; at 100 nM): 100%
- Inhibition of 3H-YM-09151-2 binding % inhibition at 50 nM ([2]; at 50 nM): 91%

SMILES: FC(F)(F)Oc1ccc(SCCCN2CCN(c3cccc4c3OCCO4)CC2)cc1 [Compound 7bj, 1-(2,3-Dihydro-benzo[1,4]dioxin-5-yl)-4-[3-(4-trifluoromethoxy-phenylsulfanyl)-propyl]-piperazine]
- inhibition at 0.1 µM ([1]; at 100 nM): 106%
- inhibition at 0.05 µM ([2]; at 50 nM): 92%

SMILES: COc1c(Cl)cccc1SCCCCN1CCN(c2cccc3c2OCCO3)CC1 [Compound 5ag, 1-[4-(3-Chloro-2-methoxy-phenylsulfanyl)-butyl]-4-(2,3-dihydro-henzo[1,4]dioxin-5-yl)-piperazine]
- IC50 [1]: 7.4 nM
- IC50 [2]: 3.1 nM

SMILES: CC1(C)Cc2cc(Cl)cc(N3CCN(CCCSc4c(Cl)cccc4Cl)CC3)c2O1 [Compound 5az, 1-(5-Chloro-2,2-dimethyl-2,3-dihydro-benzofuran-7-yl)-4-[3-(2,6-dichloro-phenylsulfanyl)-propyl]-piperazine]
- inhibition at 0.1 µM ([1]; at 100 nM): 18%
- IC50 [2]: 9.9 nM

SMILES: COc1ccccc1SCCCCN1CCN(c2cccc3c2OCCO3)CC1 [Compound 7bm, 1-(2,3-Dihydro-benzo[1,4]dioxin-5-yl)-4-[4-(2-methoxy-phenylsulfanyl)-butyl]-piperazine]
- inhibition at 0.1 µM ([1]; at 100 nM): 95%
- inhibition at 0.05 µM ([2]; at 50 nM): 83%

SMILES: Cc1cccc(C)c1OCCN1CCN(c2cccc3c2OCCO3)CC1 [Compound 7ab, 1-(2,3-Dihydro-benzo[1,4]dioxin-5-yl)-4-[2-(2,6-dimethyl-phenoxy)-ethyl]-piperazine]
- inhibition at 0.1 µM ([1]; at 100 nM): 86%
- inhibition at 0.05 µM ([2]; at 50 nM): 91%

SMILES: Fc1ccc(SCCCN2CCN(c3cccc4c3OCCO4)CC2)c(Cl)c1 [Compound 5ac, 1-[3-(2-Chloro-4-fluoro-phenylsulfanyl)-propyl]-4-(2,3-dihydro-benzo[1,4]dioxin-5-yl)-piperazine]
- IC50 [1]: 2.4 nM
- IC50 [2]: 1.4 nM

SMILES: Fc1ccc(OCCCCN2CCN(c3cccc4ccsc34)CC2)c(Cl)c1 [Compound 5bc, 1-Benzo[b]thiophen-7-yl-4-[4-(2-chloro-4-fluoro-phenoxy)-butyl]-piperazine]
- IC50 [1]: 53 nM
- IC50 [2]: 1.9 nM

SMILES: Fc1ccccc1SCCCN1CCN(c2cccc3c2OCCO3)CC1 [Compound 7ba, 1-(2,3-Dihydro-benzo[1,4]dioxin-5-yl)-4-[3-(2-fluoro-phenylsulfanyl)-propyl]-piperazine]
- inhibition at 0.1 µM ([1]; at 100 nM): 97%
- inhibition at 0.05 µM ([2]; at 50 nM): 84%

SMILES: CCc1ccccc1SCCN1CCN(c2cccc3c2OCCO3)CC1 [Compound 7as, 1-(2,3-Dihydro-benzo[1,4]dioxin-5-yl)-4-[2-(2-ethyl-phenylsulfanyl)-ethyl]-piperazine]
- inhibition at 0.1 µM ([1]; at 100 nM): 80%
- inhibition at 0.05 µM ([2]; at 50 nM): 93%

SMILES: N#Cc1ccc(N2CCN(CCCOc3ccc(F)cc3Br)CC2)c2c1OCCO2 [Compound 6b, 8-{4-[3-(2-Bromo-4-fluoro-phenoxy)-propyl]-piperazin-1-yl}-2,3-dihydro-benzo[1,4]dioxine-5-carbonitrile]
- IC50 [1]: 230 nM
- IC50 [2]: 10 nM

SMILES: Fc1ccccc1SCCN1CCN(c2cccc3c2OCCO3)CC1 [Compound 7aw, 1-(2,3-Dihydro-benzo[1,4]dioxin-5-yl)-4-[2-(2-fluoro-phenylsulfanyl)-ethyl]-piperazine]
- inhibition at 0.1 µM ([1]; at 100 nM): 74%
- inhibition at 0.05 µM ([2]; at 50 nM): 92%

SMILES: Fc1ccc(SCCCCN2CCN(c3cccc4c3OCCO4)CC2)c(Cl)c1 [Compound 7bi, 1-[4-(2-Chloro-4-fluoro-phenylsulfanyl)-butyl]-4-(2,3-dihydrobenzo[1,4]dioxin-5-yl)-piperazine]
- inhibition at 0.1 µM ([1]; at 100 nM): 96%
- inhibition at 0.05 µM ([2]; at 50 nM): 101%

SMILES: Clc1cccc(Cl)c1SCCCN1CCN(c2cccc3c2OCCO3)CC1 [Compound 5aw, 1-[3-(2,6-Dichloro-phenylsulfanyl)-propyl]-4-(2,3-dihydro-benzo[1,4]dioxin-5-yl)-piperazine]
- IC50 [1]: 1.7 nM
- IC50 [2]: 1.9 nM

SMILES: Clc1ccc(SCCN2CCN(c3cccc4c3OCCO4)CC2)cc1Cl [Compound 3a, 1-[2-(3,4-Dichloro-phenylsulfanyl)-ethyl]-4-(2,3-dihydro-benzof[, 4]dioxin-5-yl)-piperazine]
- IC50 [1]: 76 nM
- IC50 [2]: 5.4 nM

SMILES: Clc1ccccc1SCCN1CCN(c2cccc3c2OCCO3)CC1 [Compound 7av, 1-[2-(2-Chloro-phenylsulfanyl)-ethyl]-4-(2,3-dihydro-benzo[1,4]dioxin-5-yl)-piperazine]
- inhibition at 0.1 µM ([1]; at 100 nM): 90%
- inhibition at 0.05 µM ([2]; at 50 nM): 75%

SMILES: FC(F)(F)c1ccccc1SCCN1CCN(c2cccc3c2OCCO3)CC1 [Compound 7af, 1-(2,3-Dihydro-benzo[1,4]dioxin-5-yl)-4-[2-(2-trifluoromethyl-phenylsulfanyl)-ethyl]-piperazine]
- inhibition at 0.1 µM ([1]; at 100 nM): 99%
- inhibition at 0.05 µM ([2]; at 50 nM): 91%

SMILES: Fc1cc(Cl)c(OCCCCN2CCN(c3cccc4c3OCCO4)CC2)c(Cl)c1 [Compound 5bp, 1-[4-(2,6-Dichloro-4-fluoro-phenoxy)-butyl]-4-(2,3-dihydro-benzo[1,4]dioxin-5-yl)-piperazine]
- IC50 [1]: 4.8 nM
- IC50 [2]: 6.2 nM

SMILES: Fc1ccc(SCCN2CCN(c3cccc4c3OCCO4)CC2)cc1 [Compound 3b, 1-(2,3-Dihydro-benzo[1,4]dioxin-5-yl)-4-[2-(4-fluoro-phenylsulfanyl)-ethyl]-piperazine]
- IC50 [1]: 97 nM
- IC50 [2]: 4.3 nM

SMILES: Fc1cc(F)c(OCCCN2CCN(c3cccc4c3OCCO4)CC2)c(F)c1 [Compound 1c, 1-(2,3-Dihydro-benzo[1,4]dioxin-5-yl)-4-[3-(2,4,6-trifluoro-phenoxy)-propyl]-piperazine]
- IC50 [1]: 2 nM
- IC50 [2]: 13 nM

SMILES: Clc1cccc(Cl)c1SCCN1CCN(c2cccc3c2OCCO3)CC1 [Compound 3d, 1-[2-(2,6-Dichloro-phenylsulfanyl)-ethyl]-4-(2,3-dihydro-benzo[1,4]dioxin-5-yl)-piperazine]
- IC50 [1]: 31 nM
- IC50 [2]: 11 nM

SMILES: Cc1ccc(SCCN2CCN(c3cccc4c3OCCO4)CC2)c(C)c1 [Compound 7ad, 1-(2,3-Dihydro-benzo[1,4]dioxin-5-yl)-4-[2-(2,4-dimethyl-phenylsulfanyl)-ethyl]-piperazine]
- IC50 [1]: 21 nM
- inhibition at 0.05 µM ([2]; at 50 nM): 91%

SMILES: Fc1ccc(OCCCCN2CCN(c3cccc4c3OCCO4)CC2)c(Br)c1 [Compound 5be, 1-[4-(2-Bromo-4-fluoro-phenoxy)-butyl]-4-(2,3-dihydro-benzo[1,4]dioxin-5-yl)-piperazine]
- IC50 [1]: 8 nM
- IC50 [2]: 1.2 nM
